From ChEMBL document CHEMBL5143725, “Optimization of TEAD P-Site Binding Fragment Hit into In Vivo Active Lead MSC-4106” (J Med Chem, 2022)

Legend:
[1] = Inhibition of YAP/TAZ-TEAD interaction in human SK-HEP1 cells incubated for 24 hrs by luciferase reporter gene assay; type: cell-based
[2] = Microsomal stability in human microsomes measured per 10^6 cells; type: ADME, Microsome
[3] = Microsomal stability in mouse microsomes measured per 10^6 cells; type: ADME, Microsome
[4] = molecular target: T1, Transcriptional enhancer factor TEF-3 (Homo sapiens, UniProt Q15561); test: Inhibition of pSF-CMV-P-FLAG tagged human TEAD4 palmitoylation transfected in HEK293 cells at 10 uM incubated for 6 hrs by Western blot analysis relative to control; type: cell-based
T1 sequence (Q15561 whole entry, the tested form may be a part): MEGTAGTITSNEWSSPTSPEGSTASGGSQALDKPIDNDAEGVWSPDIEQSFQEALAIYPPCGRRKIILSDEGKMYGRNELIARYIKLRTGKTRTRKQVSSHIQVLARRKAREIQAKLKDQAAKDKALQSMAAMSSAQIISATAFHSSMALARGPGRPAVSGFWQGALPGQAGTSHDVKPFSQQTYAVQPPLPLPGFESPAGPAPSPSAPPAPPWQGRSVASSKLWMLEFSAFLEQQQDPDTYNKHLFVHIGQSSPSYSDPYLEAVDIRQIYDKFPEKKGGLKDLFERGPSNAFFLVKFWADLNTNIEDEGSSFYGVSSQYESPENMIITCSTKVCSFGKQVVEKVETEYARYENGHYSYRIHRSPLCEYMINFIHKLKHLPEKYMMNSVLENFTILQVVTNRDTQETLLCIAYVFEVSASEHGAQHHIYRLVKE

[5] = molecular target: T2, Transcriptional enhancer factor TEF-5 (Homo sapiens, UniProt Q99594); test: Binding affinity to human TEAD3 (216 to 435 residues) expressed in Escherichia coli BL21 Star (DE3) assessed as change in melting temperature incubated for 2 hrs by measuring tryptophane fluorescence by Nano Differential scanning fluorometry
T2 sequence (Q99594 whole entry, the tested form may be a part): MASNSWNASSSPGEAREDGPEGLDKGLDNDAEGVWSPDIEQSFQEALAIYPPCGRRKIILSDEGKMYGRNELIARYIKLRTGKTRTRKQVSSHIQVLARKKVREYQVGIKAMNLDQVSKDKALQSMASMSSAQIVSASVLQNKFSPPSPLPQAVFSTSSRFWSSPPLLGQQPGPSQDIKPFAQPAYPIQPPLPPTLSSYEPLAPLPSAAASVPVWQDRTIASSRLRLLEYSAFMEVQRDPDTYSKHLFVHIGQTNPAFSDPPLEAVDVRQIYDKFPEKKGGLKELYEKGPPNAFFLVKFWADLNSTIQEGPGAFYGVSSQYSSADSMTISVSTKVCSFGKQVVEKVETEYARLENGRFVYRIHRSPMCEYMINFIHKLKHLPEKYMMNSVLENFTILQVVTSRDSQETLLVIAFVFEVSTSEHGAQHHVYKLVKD

NCI-H226 = test: Cytotoxicity against human NCI-H226 cells assessed as cell viability at 10 uM measured for 7 days by celltiter-glo assay; type: functional, cell-based; conditions: NCI-H226, 168 h
[6] = molecular target: T2, Transcriptional enhancer factor TEF-5; test: Inhibition of pSF-CMV-P-FLAG tagged human TEAD3 palmitoylation transfected in HEK293 cells at 10 uM incubated for 6 hrs by Western blot analysis relative to control; type: cell-based
[7] = molecular target: T3, Transcriptional enhancer factor TEF-1 (Homo sapiens, UniProt P28347); test: Binding affinity to human TEAD1 (209 to 426 residues) expressed in Escherichia coli BL21 Star (DE3) assessed as change in melting temperature incubated for 2 hrs by measuring tryptophane fluorescence by Nano Differential scanning fluorometry
T3 sequence (P28347 whole entry, the tested form may be a part): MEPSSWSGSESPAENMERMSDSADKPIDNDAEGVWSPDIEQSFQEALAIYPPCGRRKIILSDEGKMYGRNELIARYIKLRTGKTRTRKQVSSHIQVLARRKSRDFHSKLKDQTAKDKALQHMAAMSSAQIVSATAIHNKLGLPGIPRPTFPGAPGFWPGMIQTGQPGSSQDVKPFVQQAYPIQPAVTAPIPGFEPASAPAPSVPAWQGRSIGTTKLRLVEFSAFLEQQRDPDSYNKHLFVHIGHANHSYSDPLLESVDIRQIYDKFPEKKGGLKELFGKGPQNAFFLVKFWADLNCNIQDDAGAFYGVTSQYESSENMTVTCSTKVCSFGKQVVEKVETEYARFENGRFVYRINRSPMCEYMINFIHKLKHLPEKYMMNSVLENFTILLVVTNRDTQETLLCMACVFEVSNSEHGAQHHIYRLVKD

[8] = molecular target: T4, Transcriptional enhancer factor TEF-4 (Homo sapiens, UniProt Q15562); test: Inhibition of pSF-CMV-P-FLAG tagged human TEAD2 palmitoylation transfected in HEK293 cells at 10 uM incubated for 6 hrs by Western blot analysis relative to control; type: cell-based
T4 sequence (Q15562 whole entry): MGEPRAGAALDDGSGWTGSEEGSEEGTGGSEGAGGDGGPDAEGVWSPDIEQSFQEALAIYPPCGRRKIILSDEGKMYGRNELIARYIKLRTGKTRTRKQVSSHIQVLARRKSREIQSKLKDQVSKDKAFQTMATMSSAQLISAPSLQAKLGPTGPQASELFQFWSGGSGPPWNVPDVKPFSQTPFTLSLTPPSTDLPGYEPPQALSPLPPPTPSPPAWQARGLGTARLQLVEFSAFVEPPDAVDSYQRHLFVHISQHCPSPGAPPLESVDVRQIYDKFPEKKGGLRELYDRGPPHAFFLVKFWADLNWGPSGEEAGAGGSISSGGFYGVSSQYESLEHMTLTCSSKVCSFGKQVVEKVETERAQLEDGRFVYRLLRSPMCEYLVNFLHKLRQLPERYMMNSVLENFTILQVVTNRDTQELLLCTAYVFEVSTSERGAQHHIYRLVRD

[9] = molecular target: T3, Transcriptional enhancer factor TEF-1; test: Inhibition of pSF-CMV-P-FLAG tagged human TEAD1 palmitoylation transfected in HEK293 cells at 10 uM incubated for 6 hrs by Western blot analysis relative to control; type: cell-based
[10] = molecular target: T4, Transcriptional enhancer factor TEF-4; test: Binding affinity to human TEAD2 (217 to 447 residues) expressed in Escherichia coli BL21 Star (DE3) assessed as change in melting temperature incubated for 2 hrs by measuring tryptophane fluorescence by Nano Differential scanning fluorometry
[11] = molecular target: T1, Transcriptional enhancer factor TEF-3; test: Binding affinity to human TEAD4 (217 to 434 residues) expressed in Escherichia coli BL21 Star (DE3) assessed as change in melting temperature incubated for 2 hr by measuring tryptophane fluorescence by Nano Differential scanning fluorometry
[12] = Solubility of the compound in SGF buffer at pH 1.2; type: physicochemical
[13] = Solubility of the compound in PBS buffer at pH 7.4; type: physicochemical
[14] = molecular target: T4, Transcriptional enhancer factor TEF-4; test: Binding affinity to human TEAD2 (217 to 447 residues) expressed in Escherichia coli BL21 Star (DE3) assessed as change in melting temperature incubated for 2 hrs measuring scattering fluorescence by Nano Differential scanning fluorometry
[15] = molecular target: T3, Transcriptional enhancer factor TEF-1; test: Binding affinity to human TEAD1 (209 to 426 residues) expressed in Escherichia coli BL21 Star (DE3) assessed as change in melting temperature incubated for 2 hrs by measuring scattering fluorescence by Nano Differential scanning fluorometry
[16] = molecular target: T2, Transcriptional enhancer factor TEF-5; test: Binding affinity to human TEAD3 (216 to 435 residues) expressed in Escherichia coli BL21 Star (DE3) assessed as change in melting temperature incubated for 2 hrs by measuring scattering fluorescence by Nano Differential scanning fluorometry
[17] = Microsomal stability in human hepatocyte measured per 10^6 cells; type: ADME, cell-based; conditions: hepatocytes
[18] = molecular target: T4, Transcriptional enhancer factor TEF-4; test: Binding affinity to human TEAD2 (217 to 447 residues) expressed in Escherichia coli BL21 Star (DE3) by surface plasmon resonance assay
[19] = molecular target: T1, Transcriptional enhancer factor TEF-3; test: Binding affinity to human TEAD4 (217 to 434 residues) expressed in Escherichia coli BL21 Star (DE3) by surface plasmon resonance assay
[20] = molecular target: T3, Transcriptional enhancer factor TEF-1; test: Binding affinity to human TEAD1 (209 to 426 residues) expressed in Escherichia coli BL21 Star (DE3) by surface plasmon resonance assay
[21] = Microsomal stability in mouse hepatocyte measured per 10^6 cells; type: ADME, cell-based; conditions: hepatocytes

Cn1cc2c(n1)c1cc(C(=O)O)ccc1n2C1CCCC1
IC50 [1]: 17 nM

Cn1cc2c3nc(C(=O)O)ccc3n(-c3ccc(C(F)(F)F)cc3)c2n1
IC50 [1]: 16 nM

Cn1cc2c3cc(C(=O)O)ccc3n(C)c2n1
Stability [2]: < 10 µL/min | Stability [3]: < 10 µL/min | IC50 [1]: > 30000 nM

CNS(=O)(=O)c1ccc(Nc2ccc(C(F)(F)F)cc2)c(-c2cn(C)cn2)c1
inhibition [4]: 70% | ΔTm [5]: 2 °C | IC50 (NCI-H226): 3 nM | inhibition [6]: 29% | ΔTm [7]: 10.2 °C | inhibition [8]: 69% | inhibition [9]: 97% | ΔTm [10]: 7.2 °C | ΔTm [11]: 3.5 °C | IC50 [1]: 1 nM

Cn1cc2c3cc(C(=O)O)ccc3n(CC3CC(C(F)(F)F)C3)c2n1 (stereo not given)
solubility [12]: < 1 µg/mL | Stability [2]: < 10 µL/min | solubility [13]: > 40 µg/mL | Stability [3]: < 10 µL/min | IC50 [1]: 52 nM

C[C@H](NC(=O)c1ccc2c(-c3ccc(C(F)(F)F)cc3)cccc2c1)c1ccccn1
inhibition [4]: 93% | ΔTm [5]: 10.1 °C | IC50 (NCI-H226): 42 nM | inhibition [6]: 93% | ΔTm [7]: 10.8 °C | inhibition [8]: 87% | inhibition [9]: 93% | ΔTm [10]: 9.8 °C | ΔTm [11]: -2.25 °C | IC50 [1]: 25 nM

O=C(O)c1ccc2c(cnn2C2CCCC2)c1
IC50 [1]: > 30 nM

Cn1cc2c(n1)[nH]c1ccc(C(=O)O)cc12
IC50 [1]: > 30000 nM

Cn1cc2c3cc(C(=O)O)ccc3n(CC3CCCCC3)c2n1
solubility [12]: < 1 µg/mL | solubility [13]: > 40 µg/mL | IC50 [1]: 96 nM

Cc1nccnc1-c1nn2c(=O)cc(-c3ccc(C4CCCCC4)cc3)[nH]c2c1C(=O)N1CC(CF)C1
inhibition [4]: 88% | IC50 (NCI-H226): 82 nM | ΔTm [14]: 9.5 °C | inhibition [6]: 91% | inhibition [8]: 86% | inhibition [9]: 84% | ΔTm [15]: 7.6 °C | ΔTm [16]: 6.9 °C | ΔTm [11]: 14.9 °C | IC50 [1]: 36 nM

Cn1cc2c3cc(C(=O)O)ccc3n(-c3ccc(OC(F)(F)F)cc3F)c2n1
IC50 [1]: 27 nM

Cn1cc2c3cc(C(=O)O)ccc3n(-c3cccc(C(F)(F)F)c3)c2n1
IC50 [1]: 46 nM

Cn1cc2c3cc(C(=O)O)ccc3n(-c3ccc(OC(F)(F)F)cc3)c2n1
Stability [2]: 12 µL/min | Stability [17]: 19 µL/min | IC50 [1]: 3 nM

Cn1cc2c3cc(C(=O)O)ccc3n(C3CC4(C3)CC(F)(F)C4)c2n1
Stability [2]: < 10 µL/min | Stability [3]: < 10 µL/min | IC50 [1]: 33 nM

Cn1cc2c3cc(C(=O)O)ccc3n(C3CCC(C(F)(F)F)CC3)c2n1 (stereo not given)
solubility [12]: < 1 µg/mL | solubility [13]: > 40 µg/mL | IC50 [1]: 42 nM

Cn1cc2c3cc(C(=O)O)ccc3n(C3CCCCC3)c2n1
IC50 [1]: 0.16 nM

C[C@@H](NC(=O)c1ccc2c(-c3ccc(C(F)(F)F)cc3)cccc2c1)c1cccc(N)n1
inhibition [4]: 66% | ΔTm [5]: 5.9 °C | IC50 (NCI-H226): 661 nM | inhibition [6]: 91% | ΔTm [7]: 5.5 °C | inhibition [8]: 51% | inhibition [9]: 83% | ΔTm [10]: 3.8 °C | ΔTm [11]: 1.3 °C | IC50 [1]: 900 nM

COC1CCC(Cn2c3ccc(C(=O)O)cc3c3cn(C)nc32)CC1 (stereo not given)
IC50 [1]: 250 nM

Cn1cc2c3cc(C(=O)O)ccc3n(-c3cccc(OC(F)(F)F)c3)c2n1
IC50 [1]: 11 nM

CCn1cc2c3cc(C(=O)O)ccc3n(-c3ccc(C(F)(F)F)cc3)c2n1
IC50 [1]: 3 nM

O=c1[nH]c(-c2nccnc2Nc2ccc(C(F)(F)F)cc2)no1
inhibition [4]: 91% | ΔTm [5]: 8.2 °C | IC50 (NCI-H226): 110 nM | inhibition [6]: 83% | ΔTm [7]: 11.2 °C | inhibition [8]: 86% | inhibition [9]: 97% | ΔTm [10]: 12.3 °C | ΔTm [11]: 9.8 °C | IC50 [1]: 15 nM

C[C@H](NC(=O)c1ccc2c(-c3ccc(C(F)(F)F)cc3)cccc2c1)c1cccc(N)n1
inhibition [4]: 93% | ΔTm [5]: 13.4 °C | IC50 (NCI-H226): 20 nM | inhibition [6]: 91% | ΔTm [7]: 14.5 °C | inhibition [8]: 87% | inhibition [9]: 92% | ΔTm [10]: 13.4 °C | ΔTm [11]: 1.3 °C | IC50 [1]: 30 nM

Cn1cc2c3cc(C(=O)O)ccc3n(-c3ccc(C(F)(F)F)nc3)c2n1
IC50 [1]: 14 nM

Cn1cc2c3cc(C(=O)O)cnc3n(-c3ccc(C(F)(F)F)cc3)c2n1
IC50 [1]: 6 nM

Cn1cc2c3cc(C(=O)O)ccc3n(CCC(C)(C)C(F)(F)F)c2n1
solubility [12]: < 1 µg/mL | Stability [2]: < 10 µL/min | solubility [13]: > 40 µg/mL | Stability [3]: < 10 µL/min | IC50 [1]: 83 nM

Cn1ncc2c3cc(C(=O)O)ccc3n(-c3ccc(C(F)(F)F)cc3)c21
IC50 [1]: 16.6 nM

Cn1cc2c(n1)c1cc(C(=O)O)ccc1n2-c1ccc(C(F)(F)F)cc1
IC50 [1]: 9 nM

CCCc1nn(C2CCC(F)(F)CC2)c2ccc(C(=O)O)cc12
Kd [18]: 43 µM | Kd [19]: 7.6 µM | Kd [20]: 5.8 µM | IC50 [1]: 1.1 nM

Cn1cc2c3cc(C(=O)O)ccc3n(CC3CCC(C(F)(F)F)CC3)c2n1 (stereo not given)
IC50 [1]: 30 nM

Cn1cc2c(n1)c1cc(C(=O)O)ccc1n2C1CCCCC1
IC50 [1]: 0.73 nM

O=C(O)c1cnc2c(cnn2C2CCCCC2)c1
IC50 [1]: 5.2 nM

Cn1cc2c3cc(C(=O)O)ccc3n(-c3ccc(C(F)(F)F)cn3)c2n1
IC50 [1]: 5 nM

C#CCn1cc2c3cc(C(=O)O)ccc3n(-c3ccc(C(F)(F)F)cc3)c2n1
Stability [21]: > 20 µL/min | Stability [17]: > 20 µL/min | IC50 [1]: 4 nM

Cn1cc2c3cc(C(=O)O)ccc3n(-c3ccc(C(F)(F)F)c(F)c3)c2n1
IC50 [1]: 4 nM

O=C(O)c1ccc2c(c1)c1c[nH]nc1n2-c1ccc(C(F)(F)F)cc1
IC50 [1]: 138 nM

Cn1cc2c3cc(C(=O)O)ncc3n(-c3ccc(C(F)(F)F)cc3)c2n1
IC50 [1]: 39 nM

Cn1ncc2c1c1cc(C(=O)O)ccc1n2-c1ccc(C(F)(F)F)cc1
IC50 [1]: 48 nM

O=C(O)c1cnc2c(cnn2C2CCCC2)c1
IC50 [1]: 16 nM

O=C(O)c1ccc2c(cnn2C2CCC(F)(F)CC2)c1
IC50 [1]: 14 nM

O=C(O)c1ccc2c(c1)c1cn(C(F)(F)F)nc1n2-c1ccc(C(F)(F)F)cc1
Stability [17]: < 4 µL/min | IC50 [1]: 7 nM

N#CCn1cc2c3cc(C(=O)O)ccc3n(-c3ccc(C(F)(F)F)cc3)c2n1
IC50 [1]: 27 nM

Cn1cc2c3cc(C(=O)O)ccc3n(-c3ccc(F)cc3)c2n1
IC50 [1]: 163 nM

CCCn1cc2c3cc(C(=O)O)ccc3n(-c3ccc(C(F)(F)F)cc3)c2n1
IC50 [1]: 7 nM

CNS(=O)(=O)c1ccc(NCc2ccccc2)c(-c2cn(C)cn2)c1
inhibition [4]: 19% | ΔTm [5]: 0.4 °C | IC50 (NCI-H226): 140 nM | inhibition [6]: 10% | ΔTm [7]: 3.4 °C | inhibition [8]: 33% | inhibition [9]: 96% | ΔTm [10]: -0.7 °C | ΔTm [11]: -0.1 °C | IC50 [1]: 29 nM

Cn1cc2c3cc(C(=O)O)ccc3n(C34CC(C(F)(F)F)(C3)C4)c2n1
Stability [2]: < 10 µL/min | Stability [3]: < 10 µL/min | IC50 [1]: 33 nM

O=C(O)c1cnc2c(cnn2C2CCC(F)(F)CC2)c1
IC50 [1]: 28 nM
